We go through two molecules from ChEMBL document CHEMBL3351791, “Some molecular targets for antihyperlipidemic drug research” (Eur J Med Chem, 2014).

SMILES strings stand for the structures.

By IC50 is commonly meant the concentration needed to halve the response being measured. A higher IC50 goes with weaker potency in that assay. By ED50 is commonly meant the dose that gives a 50% effect, or the effect in half of the subjects.

Assay [1] deals with T1, Cholesteryl ester transfer protein (Homo sapiens, UniProt P11597).
T1 sequence (P11597 whole entry): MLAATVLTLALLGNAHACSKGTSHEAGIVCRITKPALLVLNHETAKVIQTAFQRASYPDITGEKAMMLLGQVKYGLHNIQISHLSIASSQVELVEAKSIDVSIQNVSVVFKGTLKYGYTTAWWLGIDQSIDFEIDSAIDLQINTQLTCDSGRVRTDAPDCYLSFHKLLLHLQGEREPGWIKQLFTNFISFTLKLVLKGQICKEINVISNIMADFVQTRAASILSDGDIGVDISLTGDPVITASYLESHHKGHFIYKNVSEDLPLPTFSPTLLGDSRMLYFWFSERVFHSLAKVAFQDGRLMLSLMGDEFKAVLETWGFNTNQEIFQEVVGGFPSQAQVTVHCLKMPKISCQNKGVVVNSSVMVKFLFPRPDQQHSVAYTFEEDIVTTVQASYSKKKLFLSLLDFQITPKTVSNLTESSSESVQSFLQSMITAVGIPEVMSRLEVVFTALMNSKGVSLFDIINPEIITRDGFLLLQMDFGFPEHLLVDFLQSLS
In words: Inhibition of CETP-mediated [3H]-CE from HDL to LDL in human plasma.

A further assay concerns Mus musculus. In words: Ex vivo inhibition of human CETP overexpressed in po dosed double transgenic mouse harboring human apoA1 assessed as elevation of HDL-cholesterol level measured at 8 hrs post dose. In kind it is functional.

`NCC(O)C(F)(F)F` (configuration not stated) yielded an IC50 in assay [1] of 600 nM. Take `Cc1cc(C)c2c(c1)[C@@H](N(Cc1cc(C(F)(F)F)cc(C(F)(F)F)c1)c1nnn(C)n1)CCCN2C[C@H]1CC[C@H](C(=O)O)CC1` [EVACETRAPIB]: the ED50 in the assay with Mus musculus is under 5 mg/kg.
